# Measured values as given in patent US4119719A, “Piperazine compounds” (Parcor, priority 1975, dated 1978).
# Structures can show the parent of a compound that is named as a salt.
# Assays:
# [1] = LD50 /24 hours, intravenous route in mice (method of Miller and Tainter); conditions: mouse, in vivo, read-out: LD50 /24 hours/kg of body weight
# Protocol: 1, 53 mg for derivative no. 2, 89 mg for derivative no. 3, 57 mg for derivative no. 4, 41 mg for derivative no. 5, 62 mg for derivative no. 6, 66 mg for derivative no. 7, 74 mg for derivative no. 8 and 100 mg for derivative no. 9.
# [2] = test system: cholesterol level in the plasma; test: Hypocholesterolaemic activity: test using propyl thiouracil; assay type: in vivo; conditions: rats, 10 mg/kg orally, 11th day
# Excerpt: (a) Test using propyl thiouracil ([…] and Coll., J. Pharmacol. Exper. Therap., 1963, 142, 132-136). […] On the 11th day of the experiment, blood samples are taken and the free cholesterol and total cholesterol are estimated.
# [3] = test system: stretching movements induced by acetic acid; test: Analgesic activity: acetic acid stretching movements (method of Koster, Anderson and De Beer); assay type: in vivo; conditions: mice, 50 mg/kg oral thirty minutes before acetic acid; reduction in stretching movements in next thirty minutes
# Protocol: The intraperitoneal injection of a dilute solution of acetic acid causes, in mice, repeated characteristic stretching movements under the effect of the pain. The oral administration of a dosage of 50 mg/kg of the test derivative, thirty minutes before the injection of acetic acid, reduces the number of movements in the next thirty minutes. In this way, the average number of stretching movements and the percentage analgesia obtained, corresponding to the percentage reduction in the number of stretching movements, compared with the controls, are determined.
# [4] = test system: livers and aortas; test: Rabbits kept on a hypercholesterolaemic diet: macroscopic examination of livers and aortas; assay type: in vivo; conditions: 10 mg/kg daily oral, end of experiment; for aortic atheromatous lesions: marked in intensity from 0 to 4; for fatty infiltrations of the liver: marked in size from 0 to 3
# Protocol: (§1) (b) This study was carried out on rabbits kept on a hypercholesterolaemic diet. The rabbits are divided into batches of 40 animals; the control batch (A) receives no treatment, whereas the treated batches are given the medicines according to the invention. Thus, derivative no. 1 is administered to the animals in batch B, derivative no. 5 to those in batch C and derivative no. 7 to those in batch D, by oral route, daily, in dosage of 10 mg/kg. On the first day of the experiments and then every 15 days, for a period of 75 days, biological tests are carried out on all the animals, whereby the various elements which indicate dyslipaemia are determined: total cholesterol (T), esterified cholesterol (E), free cholesterol (L), esterification ratio (E/T), Kunkel phenol test (K1), Kunkel phenol test (K2), Burstein test with dextrane (B) and serum lipids (LS).
# At the end of the experiment, all the animals are killed and autopsies are performed on them; macroscopic examinations of their livers and aortas are then carried out, and the fatty infiltrations of the liver are marked, in size, from 0 to 3 and the aortic atheromatous lesions are marked, in intensity, from 0 to 4.
# (§2) The results, representing the average values determined with each batch, are assembled in the following Tables: […]
# [5] = test system: dyslipaemia; test: Hypocholesterolaemic activity: rabbits kept on a hypercholesterolaemic diet, biological tests of dyslipaemia; assay type: in vivo; set-up: total cholesterol (T) / esterified cholesterol (E) / free cholesterol (L) / Burstein test with dextrane (B) / serum lipids (LS): unit not given here; conditions: 10 mg/kg daily oral
# Protocol: as §1, §2
# [6] = test system: carrageenin-induced oedema; test: Anti-inflammatory activity: localised carrageenin-induced oedema; assay type: in vivo; conditions: rat, 10 mg/kg oral (four administrations)
# Protocol: A 1% carrageenin solution (0.1 ml) is injected into the metatarsal flexors of the right hind paw of the rat at time 0. The animals in the treated batch are also given by oral route, 10 mg/kg of the test derivative, one hour before, then at the same time as the injection of the phlogogenic agent, then one hour and 21/2 hours afterwards, respectively. The measurements taken with a Roch micrometer at time 0, then 1 hour, 2 hours, 3 hours and 5 hours after administration of the carrageenin make it possible to determine, as a function of time, the percentage anti-inflammatory activity compared with the control batch.
# [7] = test system: ovalbumin oedema; test: Anti-inflammatory activity: generalised ovalbumin oedema; assay type: in vivo; conditions: rat, 50 mg oral one hour before and at injection of ovalbumin
# Protocol: The rat is given a simultaneous intraperitoneal injection of 1 ml of ovalbumin and 0.5 ml of a 1% aqueous solution of Evans blue. Moreover, 50 mg of the test derivative are administered orally to the animals of the test batches one hour before and at the same time as the injection of ovalbumin. The intensity of the phenomenon thus induced is given a mark from 1 to 5, depending on the progression of the inflammatory syndrome. Thus, the average oedematous intensity and the percentage reduction in the oedematous reaction, compared with the control, are determined.
Structure (SMILES),LD50 at 24 h [1],Free cholesterol [2],Total cholesterol [2],average percentage of analgesia [3],aortic atheromatous lesions [4],fatty infiltrations of the liver [4],Burstein test with dextrane (B) ([5]; 1st Day),Kunkel phenol test (K1) ([5]; 1st Day),Kunkel phenol test (K2) ([5]; 1st Day),esterification ratio (E/T) ([5]; 1st Day),esterified cholesterol (E) ([5]; 1st Day),free cholesterol (L) ([5]; 1st Day),serum lipids (LS) ([5]; 1st Day),total cholesterol (T) ([5]; 1st Day),Burstein test with dextrane (B) ([5]; 30th Day),Kunkel phenol test (K1) ([5]; 30th Day),Kunkel phenol test (K2) ([5]; 30th Day),esterification ratio (E/T) ([5]; 30th Day),esterified cholesterol (E) ([5]; 30th Day),free cholesterol (L) ([5]; 30th Day),further results
"Clc1ccccc1N1CCN(CCCNC2CCCCC2)CC1 [Derivative no. 6, 4-(o-chlorophenyl)-1-(3-cyclohexylamino)-propylpiperazine trihydrochloride]",62 mg/kg,0.15 g/L,0.53 g/L,61%,,,,,,,,,,,,,,,,,
"Cl.Cl.Cl.Clc1ccc(N2CCN(CCCNC3CCCCC3)CC2)cc1 [Derivative no. 5, 1-(3-cyclohexylamino-propyl)-4-(p-chlorophenyl)-piperazine trihydrochloride]",41 mg/kg,0.16 g/L,0.55 g/L,,1.2,1.0,10.9,8.1,12.6,0.49,0.28,0.29,2.1,0.57,21.1,18.8,25.0,0.62,0.91,0.54,serum lipids (LS) ([5]; 30th Day): 2.85; total cholesterol (T) ([5]; 30th Day): 1.45; Burstein test with dextrane (B) ([5]; 75th Day): 35.9; Kunkel phenol test (K1) ([5]; 75th Day): 32.8; Kunkel phenol test (K2) ([5]; 75th Day): 41.8; esterification ratio (E/T) ([5]; 75th Day): 0.60; esterified cholesterol (E) ([5]; 75th Day): 1.78; free cholesterol (L) ([5]; 75th Day): 1.14; serum lipids (LS) ([5]; 75th Day): 4.1; total cholesterol (T) ([5]; 75th Day): 2.92
"CCCNCCCN1CCN(c2cccc(C(F)(F)F)c2)CC1 [Derivative no. 4, 1-(3-n-propylaminopropyl)-4-(m-trifluoro-methylphenyl)-piperazine dihydrochloride]",57 mg/kg,,,,,,,,,,,,,,,,,,,,Percentage anti-inflammatory activity ([6]; after 1 hr): 39%; Percentage anti-inflammatory activity ([6]; after 2 hrs): 51%; Percentage anti-inflammatory activity ([6]; after 3 hrs): 53%; Percentage anti-inflammatory activity ([6]; after 5 hrs): 58%; Percentage reduction in oedematous reaction ([7]; 2nd hour): 49%; Percentage reduction in oedematous reaction ([7]; 3rd hour): 61%
"COc1ccc(N2CCN(CCCN3CCCC3)CC2)cc1.Cl.Cl.Cl [Derivative no. 8, 1-(p-methoxyphenyl)-4-(3-pyrrolidino-propyl)-piperazine trihydrochloride]",74 mg/kg,,,,,,,,,,,,,,,,,,,,Percentage anti-inflammatory activity ([6]; after 1 hr): 37%; Percentage anti-inflammatory activity ([6]; after 2 hrs): 48%; Percentage anti-inflammatory activity ([6]; after 3 hrs): 50%; Percentage anti-inflammatory activity ([6]; after 5 hrs): 54%; Percentage reduction in oedematous reaction ([7]; 2nd hour): 55%; Percentage reduction in oedematous reaction ([7]; 3rd hour): 68%
"Cc1ccc(N2CCN(CCCNC3CCCCC3)CC2)cc1 [Derivative no. 1, 1-(3-cyclohexylamino-propyl)-4-p-tolyl-piperazine]",25 mg/kg,,,65%,1.4,0.9,11.1,8.2,13.7,0.50,0.28,0.27,1.95,0.55,21.2,18.6,25.4,0.62,0.92,0.55,serum lipids (LS) ([5]; 30th Day): 2.91; total cholesterol (T) ([5]; 30th Day): 1.47; Burstein test with dextrane (B) ([5]; 75th Day): 35.8; Kunkel phenol test (K1) ([5]; 75th Day): 33.1; Kunkel phenol test (K2) ([5]; 75th Day): 41.9; esterification ratio (E/T) ([5]; 75th Day): 0.66; esterified cholesterol (E) ([5]; 75th Day): 1.80; free cholesterol (L) ([5]; 75th Day): 1.12; serum lipids (LS) ([5]; 75th Day): 4.03; total cholesterol (T) ([5]; 75th Day): 2.92
"Clc1ccc(N2CCN(CCCN3CCOCC3)CC2)cc1 [Derivative no. 9, dimaleate]",100 mg/kg,0.13 g/L,0.57 g/L,,,,,,,,,,,,,,,,,,
"Cl.Cl.Clc1ccc(N2CCN(CCCN3CCCC3)CC2)cc1 [Derivative no. 7, 1-(p-chlorophenyl)-4-(3-pyrrolidino-propyl)-piperazine dihydrochloride]",66 mg/kg,0.12 g/L,0.50 g/L,69%,1.4,1.2,10.6,8.1,13.2,0.51,0.27,0.25,1.98,0.52,21.2,18.5,25.2,0.63,0.96,0.55,serum lipids (LS) ([5]; 30th Day): 2.88; total cholesterol (T) ([5]; 30th Day): 1.51; Burstein test with dextrane (B) ([5]; 75th Day): 35.6; Kunkel phenol test (K1) ([5]; 75th Day): 32.9; Kunkel phenol test (K2) ([5]; 75th Day): 50.0; esterification ratio (E/T) ([5]; 75th Day): 0.62; esterified cholesterol (E) ([5]; 75th Day): 1.83; free cholesterol (L) ([5]; 75th Day): 1.12; serum lipids (LS) ([5]; 75th Day): 3.97; total cholesterol (T) ([5]; 75th Day): 2.95
"CCCNCCCN1CCN(c2ccc(F)cc2)CC1 [Derivative no. 3, 1-(p-fluorophenyl)-4-(3-N-propylamino)propyl piperazine trihydrochloride]",89 mg/kg,,,,,,,,,,,,,,,,,,,,Percentage anti-inflammatory activity ([6]; after 1 hr): 31%; Percentage anti-inflammatory activity ([6]; after 2 hrs): 44%; Percentage anti-inflammatory activity ([6]; after 3 hrs): 47%; Percentage anti-inflammatory activity ([6]; after 5 hrs): 49%; Percentage reduction in oedematous reaction ([7]; 2nd hour): 51%; Percentage reduction in oedematous reaction ([7]; 3rd hour): 62%
"Clc1ccc(N2CCN(CCCN3CCCCC3)CC2)cc1 [Derivative no. 2, 4-p-chlorophenyl-1-(3-piperidinopropyl)-piperazine]",53 mg/kg,0.13 g/L,0.62 g/L,72%,,,,,,,,,,,,,,,,,
